Molecules are shown by their SMILES.

What is called IC50 is the concentration at which inhibition is half-maximal.

For this test, the target named is human plasma kallikrein (Homo sapiens, UniProt P03952). As to the kind of experiment: Kallikrein inhibition FLINT assay with quenched AMC peptide substrate Z-Gly-Pro-Arg-AMC (end point EP or kinetic KIN reads). The note with it: kinetic reads at 5 min intervals over 30 min; read-out: Kallikrein (KIN) IC50. It is filed as biochemical. The method, boiled down:
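Enzyme and compound were preincubated 30 min before adding 50 μM AMC substrate in pH 7.5 Tris/NaCl/CaCl2/BSA/CHAPS buffer. AMC release was read at 30 min endpoint or every 5 min.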

human plasma kallikrein, sequence (P03952 391-638 limits assumed): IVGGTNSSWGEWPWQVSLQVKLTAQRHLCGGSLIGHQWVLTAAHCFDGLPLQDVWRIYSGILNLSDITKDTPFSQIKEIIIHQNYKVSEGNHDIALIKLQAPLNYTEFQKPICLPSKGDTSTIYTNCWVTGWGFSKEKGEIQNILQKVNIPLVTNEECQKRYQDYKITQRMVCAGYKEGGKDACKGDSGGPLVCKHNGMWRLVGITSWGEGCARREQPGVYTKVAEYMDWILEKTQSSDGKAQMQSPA
human plasma kallikrein, sequence (P03952 20-390 partner limits assumed): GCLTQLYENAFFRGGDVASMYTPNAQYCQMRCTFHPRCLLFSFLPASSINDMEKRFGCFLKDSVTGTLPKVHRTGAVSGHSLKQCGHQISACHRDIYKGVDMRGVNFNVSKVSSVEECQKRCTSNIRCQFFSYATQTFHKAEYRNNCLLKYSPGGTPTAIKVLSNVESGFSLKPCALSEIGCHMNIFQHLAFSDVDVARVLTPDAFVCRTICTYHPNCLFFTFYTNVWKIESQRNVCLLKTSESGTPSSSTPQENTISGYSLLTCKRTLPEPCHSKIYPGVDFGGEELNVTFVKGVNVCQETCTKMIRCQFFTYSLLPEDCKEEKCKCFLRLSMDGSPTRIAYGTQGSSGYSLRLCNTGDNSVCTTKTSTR

Turning to `[O-][n+]1cc(-c2cc(Cl)ccc2-n2cnnn2)ccc1C(Cc1ccc(Cl)cc1)n1cc(-c2ccncc2F)cn1` (stereo not shown) [Example P174], the IC50 was determined as 50.8 nM.
The value for `O=C(O)c1cccc(-c2cnn(C(CC3CC3)c3ccc(-c4cc(Cl)ccc4-n4cnnn4)c[n+]3[O-])c2)c1` (stereo not shown) [Example P13] was 536 nM.
As to `N#Cc1cc(-c2cnn(C(CCOC(F)F)c3ccc(-c4c(-n5cnnn5)ccc(Cl)c4F)c[n+]3[O-])c2)ccn1` (stereo not shown) [Example P458], the IC50 turned out to be 19 nM.
Consider `[O-][n+]1cc(-c2cc(Cl)ccc2-n2cnnn2)ccc1C(Cc1ccc(Cl)cc1)n1cc(-c2ccnc(F)c2)cn1` (stereo not shown) [Example P210], for which the IC50 amounted to 22.8 nM.
The value for `CC1CC1CC(c1ccc(-c2c(-n3cnnn3)ccc(Cl)c2F)c[n+]1[O-])n1cc(-c2ncnn2C(F)F)cn1` (stereo not shown) [Example P766] was greater than 100 nM; that for `COc1cc(C(Cc2ccn(C(F)F)n2)n2cc(-c3ccc(C(N)=O)c(F)c3)cn2)[n+]([O-])cc1-c1c(C(F)F)ccc(Cl)c1F` (stereo not shown) [Example Q75] was 10 nM.
Take `COCc1ccnn1CC(c1ccc(-c2c(-n3cnnn3)ccc(Cl)c2F)c[n+]1[O-])n1cc(-c2ccnc(C(F)(F)F)c2)cn1` (stereo not shown) [Example P464]: the IC50 is 185 nM.
On to `CN(CC(c1ccc(-c2c(-n3cnnn3)ccc(Cl)c2F)c[n+]1[O-])n1cc(-c2ccnc(F)c2)cn1)C(=O)OC(C)(C)C` (single isomer, unassigned) [Example P354], for which the IC50 was found to be 38.8 nM.
`O=C1CCCN1CC(c1ccc(-c2c(-n3cnnn3)ccc(Cl)c2F)c[n+]1[O-])n1cc(-c2ccnc(F)c2)cn1` (stereo not shown) [Example P257]: the IC50 was found to be 7.1 nM.
The value for `[O-][n+]1cc(-c2c(-n3cnnn3)ccc(Cl)c2F)ccc1C(Cn1cc(F)c(COC(F)F)n1)n1cc(-c2ccnc(C(F)(F)F)c2)cn1` (single isomer, unassigned) [Example P570] was 7.2 nM; that for `[O-][n+]1ccc(-c2cnn(C(Cn3cccn3)c3ccc(-c4c(-n5cnnn5)ccc(Cl)c4F)c[n+]3[O-])c2)nc1` (stereo not shown) [Example P320] was 128 nM.
The value for `CN(CC(c1ccc(-c2c(-n3cnnn3)ccc(Cl)c2F)c[n+]1[O-])n1cc(-c2ccnc(C(F)(F)F)c2)cn1)C(=O)C1CCOCC1` (stereo not shown) [Example P407] was 109 nM; that for `[O-][n+]1cc(-c2c(-n3cnnn3)ccc(Cl)c2F)ccc1[C@@H](CCOC(F)F)n1cc(-c2ccn(C(F)F)n2)cn1` [Example P563] was 25 nM; that for `Cc1nc(N)ccc1-c1cnn(C(CC2CC2)c2ccc(-c3c(-n4cnnn4)ccc(Cl)c3F)c[n+]2[O-])c1` (stereo not shown) [Example P183] was 186 nM.
`COc1cc(C(CC2CC2)n2cc(-c3ncnn3C(F)F)cn2)[n+]([O-])cc1-c1cc(Cl)ccc1-n1cc(C(F)(F)F)nn1` (single isomer, unassigned) [Example P940]: the 50% inhibitory concentration (IC50) came out at 14.2 nM.
Turning to `COCC[C@H](c1ccc(-c2c(-n3cc(OC(F)F)nn3)ccc(Cl)c2F)c[n+]1[O-])n1cc(-c2cnnn2C)cn1` [Example P616], the IC50 was found to be 205 nM.
Turning to `Cn1nnc(F)c1-c1cnn(C(CC2CC2)c2ccc(-c3c(-n4cnnn4)ccc(Cl)c3F)c[n+]2[O-])c1` (stereo not shown) [Example P744], the IC50 was 48.9 nM.
For the molecule `O=C(O)c1ccc(-c2cnn([C@H](CCOC(F)F)c3ccc(-c4c(-n5cc(C(F)(F)F)nn5)ccc(Cl)c4F)c[n+]3[O-])c2)cc1` [Example P858], the 50% inhibitory concentration (IC50) amounted to 11.6 nM.
The value for `O=C(O)c1ccc(-c2cnn(C(Cc3nccs3)c3ccc(-c4c(-n5cc(C(F)(F)F)nn5)ccc(Cl)c4F)c[n+]3[O-])c2)cc1F` (stereo not shown) [Example P941] was 12.2 nM; that for `NC(=O)c1ccc(-c2cnn(C(Cn3cccn3)c3ccc(-c4c(-n5cc(C(F)(F)F)nn5)ccc(Cl)c4F)c[n+]3[O-])c2)cc1F` (stereo not shown) [Example P948] was 11.8 nM.
In the case of `CC(C)(C)c1cc(-c2cnn(C(Cn3cc(F)cn3)c3ccc(-c4c(-n5cnnn5)ccc(Cl)c4F)c[n+]3[O-])c2)cc[n+]1[O-]` (stereo not shown) [Example P436], the IC50 amounted to 95.6 nM.
As to `O=c1[nH]c(-c2ccc(-c3cnn(C(CCOC(F)F)c4ccc(-c5c(-n6cc(C(F)(F)F)nn6)ccc(Cl)c5F)c[n+]4[O-])c3)cc2)no1` (stereo not shown) [Example P903], the IC50 was determined as 11.5 nM.
In the case of `Cn1cc(-c2cnn(C(CC3CC3)c3ccc(-c4c(-n5cnnn5)ccc(Cl)c4F)c[n+]3[O-])c2)cn1` (stereo not shown) [Example P288], the half-maximal inhibitory concentration (IC50) was 841 nM.
The same measure for `COCCC(c1ccc(-c2c(-n3cnnn3)ccc(Cl)c2F)c[n+]1[O-])n1cc(-n2ccnc2)cn1` (single isomer, unassigned) [Example P527]: 176 nM; for `[O-][n+]1cc(-c2c(-n3cnnn3)ccc(Cl)c2F)ccc1C(Cn1cc(F)c(COC(F)F)n1)n1cc(-c2ccnc(C(F)(F)F)c2)cn1` (single isomer, unassigned) [Example P571]: 134 nM.
In the case of `CCC(c1cc(OC)c(-c2cc(Cl)ccc2C#N)c[n+]1[O-])n1cc(-c2ncnn2C(F)F)cn1` (stereo not shown) [Example Q54], the IC50 is 753 nM.
The same measure for `Cn1ncnc1-c1cnn(C(CCOC(F)F)c2ccc(-c3c(-n4nncc4OC(F)F)ccc(Cl)c3F)c[n+]2[O-])c1` (single isomer, unassigned) [Example P800]: 62.7 nM.
The same measure for `COC(=O)Nc1ccc(-c2cnn(C(CC3CC(C)(C)C3)c3ccc(-c4c(-n5cnnn5)ccc(Cl)c4F)c[n+]3[O-])c2)cc1` (stereo not shown) [Example P126]: 248 nM; for `[O-][n+]1cc(-c2c(-n3cnnn3)ccc(Cl)c2F)ccc1C(Cc1ccc(F)cc1)n1cc(-c2ccncc2)cn1` (single isomer, unassigned) [Example P235]: 1.4 nM; for `COCC[C@H](c1ccc(-c2c(-n3cc(Cl)nn3)ccc(Cl)c2F)c[n+]1[O-])n1cc(-c2c(F)cnn2C(F)F)cn1` [Example P626]: 322 nM.
The same measure for `[O-][n+]1cc(-c2c(-n3cnnn3)ccc(Cl)c2F)ccc1C(Cn1cc(F)cn1)n1cc(-c2ccnc(C3CC3)c2)cn1` (stereo not shown) [Example P500]: 3.7 nM; for `Cn1ncc2cc(-c3cnn(C(CC4CC4)c4ccc(-c5c(-n6cnnn6)ccc(Cl)c5F)c[n+]4[O-])c3)ccc21` (stereo not shown) [Example P265]: 88.1 nM.
In the case of `COc1cc(C(CC2CC2)n2cc(-c3ncnn3C)cn2)[n+]([O-])cc1-c1cc(Cl)ccc1-n1cc(C(F)(F)F)nn1` (single isomer, unassigned) [Example P918], the half-inhibitory concentration (IC50) stood at 29.5 nM.
The same measure for `COC(=O)CC(c1ccc(-c2c(-n3cc(C(F)(F)F)nn3)ccc(Cl)c2F)c[n+]1[O-])n1cc(-c2ccc(C(=O)O)c(F)c2)cn1` (stereo not shown) [Example P890]: 105 nM.
On to `N#Cc1cnn(CC(c2ccc(-c3c(-n4cc(C(F)(F)F)nn4)ccc(Cl)c3F)c[n+]2[O-])n2cc(-c3ccc(C(N)=O)c(F)c3)cn2)c1` (stereo not shown) [Example P955], for which the half-maximal inhibitory concentration (IC50) is 613 nM.
Take `[O-][n+]1cc(-c2c(-n3cnnn3)ccc(Cl)c2F)ccc1C(Cn1cc(F)cn1)n1cc(-c2ccnn2C(F)F)cn1` (stereo not shown) [Example P645]: the IC50 was determined as 893 nM.
The value for `Cn1nnc(F)c1-c1cnn([C@H](CCOC(F)F)c2ccc(-c3c(-n4cnnn4)ccc(Cl)c3F)c[n+]2[O-])c1` [Example P724] was 8.5 nM; that for `CC1CC1C[C@@H](c1ccc(-c2c(-n3cnnn3)ccc(Cl)c2F)c[n+]1[O-])n1cc(-c2c(F)nnn2C)cn1` (stereo partly shown) [Example P769] was greater than 100 nM.
`COc1cc(C(CC2CC2)n2cc(-c3cnn(C)c(=O)c3)cn2)[n+]([O-])cc1-c1c(-n2cnnn2)ccc(Cl)c1F` (stereo not shown) [Example P66]: the concentration for half-maximal inhibition (IC50) was determined as 20.6 nM.
Consider `CC1CC1CC(c1ccc(-c2c(-n3cnnn3)ccc(Cl)c2F)c[n+]1[O-])n1cc(-c2ncnn2C(F)F)cn1` (stereo not shown) [Example P764], for which the IC50 was greater than 100 nM.
Turning to `Cn1ncnc1-c1cnn([C@H](CCOC(F)F)c2ccc(-c3c(-n4cc(Cl)nn4)ccc(Cl)c3F)c[n+]2[O-])c1` [Example P722], the IC50 was 39.6 nM.
The same measure for `[O-][n+]1ccc(-c2cnn(C(CCOC(F)F)c3ccc(-c4c(-n5cnnn5)ccc(Cl)c4F)c[n+]3[O-])c2)c(F)c1` (single isomer, unassigned) [Example P306]: 14.8 nM.
As for `[O-][n+]1cc(-c2c(-n3cnnn3)ccc(Cl)c2F)ccc1C(CCOC(F)F)n1cc(-c2cn(C(F)F)nn2)cn1` (single isomer, unassigned) [Example P660], the IC50 turned out to be 287 nM.
Consider `[O-][n+]1ccc(-c2cnn(C(Cn3cccn3)c3ccc(-c4c(-n5cnnn5)ccc(Cl)c4F)c[n+]3[O-])c2)cc1C(F)F` (single isomer, unassigned) [Example P334], for which the IC50 was determined as 29 nM.
The value for `[O-][n+]1cc(-c2c(-n3cc(C4CC4)nn3)ccc(Cl)c2F)ccc1C(Cn1cc(F)cn1)n1cc(-c2ccnc(C(F)(F)F)c2)cn1` (stereo not shown) [Example P485] was 670 nM; that for `CN(CC(c1ccc(-c2c(-n3cnnn3)ccc(Cl)c2F)c[n+]1[O-])n1cc(-c2ccncc2)cn1)OC(F)(F)F` (stereo not shown) [Example P323] was 23 nM.
The value for `CN(CC(c1ccc(-c2c(-n3cnnn3)ccc(Cl)c2F)c[n+]1[O-])n1cc(-c2ccnc(C(F)(F)F)c2)cn1)C(=O)CCC(=O)N1CCCCC1` (single isomer, unassigned) [Example P400] was 93.8 nM; that for `COc1cc([C@@H](CC2CC2)n2cc(-c3ccc(C(=O)O)cc3)cn2)[n+]([O-])cc1-c1cc(Cl)ccc1C#N` [Example Q51] was 14.5 nM.
For `Cn1nccc1-c1cnn(C(Cn2cc(F)cn2)c2ccc(-c3c(C(F)F)ccc(Cl)c3F)c[n+]2[O-])c1` (stereo not shown) [Example Q30], the IC50 worked out at 88.1 nM.
The same measure for `[O-][n+]1cc(-c2c(-n3cnnn3)ccc(Cl)c2F)ccc1C(Cn1cc(F)cn1)n1cc(-c2ccnc(C(F)(F)F)n2)cn1` (stereo not shown) [Example P469]: 36.2 nM.
In the case of `Cn1ccc(CC(c2ccc(-c3c(-n4cnnn4)ccc(Cl)c3F)c[n+]2[O-])n2cc(-c3ccnc(C(F)(F)F)c3)cn2)n1` (single isomer, unassigned) [Example P378], the half-inhibitory concentration (IC50) worked out at 140 nM.
The value for `Cn1ncnc1-c1cnn(C(CCOC(F)(F)F)c2ccc(-c3c(-n4cc(C(F)(F)F)nn4)ccc(Cl)c3F)c[n+]2[O-])c1` (stereo not shown) [Example P840] was roughly 423 nM.
